From US8299238B2, “Steroidogenesis modified cells and methods for screening for endocrine disrupting chemicals” (University of Saskatchewan, priority 2009, dated 2012)

Legend:
H295R cells [1] = settings: H295R cells (parental or unmodified); cited from earlier work
aromatase (CYP19) = target: T1, aromatase (CYP19) (Homo sapiens, UniProt P11511); settings: cited from earlier work
T1 sequence (P11511 1-503): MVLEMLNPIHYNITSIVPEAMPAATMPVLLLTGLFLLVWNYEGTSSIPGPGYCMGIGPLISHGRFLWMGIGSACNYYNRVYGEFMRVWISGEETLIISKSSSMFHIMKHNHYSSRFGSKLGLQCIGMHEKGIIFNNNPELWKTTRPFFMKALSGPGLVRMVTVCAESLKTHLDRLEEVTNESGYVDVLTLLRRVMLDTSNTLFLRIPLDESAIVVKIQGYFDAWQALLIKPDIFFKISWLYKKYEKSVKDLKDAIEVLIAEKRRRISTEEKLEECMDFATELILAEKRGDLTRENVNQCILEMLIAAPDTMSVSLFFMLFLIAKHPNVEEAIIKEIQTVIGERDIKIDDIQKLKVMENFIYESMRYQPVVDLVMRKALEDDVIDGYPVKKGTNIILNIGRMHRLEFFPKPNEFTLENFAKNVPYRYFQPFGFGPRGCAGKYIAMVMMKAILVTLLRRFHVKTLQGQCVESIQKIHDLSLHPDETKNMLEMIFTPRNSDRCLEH

aromatase = target: T2, aromatase (Homo sapiens, UniProt P11511); settings: human ovarian tumor cells (KGN); cited from earlier work
T2 construct: endogenous in cells; host or cells: KGN human ovarian tumor cells
T2 sequence (P11511 1-503): T1 sequence (P11511 1-503)

[2] = in vivo; cited from earlier work
[3] = cited from earlier work
ER = settings: cited from earlier work
estrogen receptor = settings: cited from earlier work
esterase = settings: in vitro; cited from earlier work
H295R/CYP21A2-KD cells = assay: Chemical exposure, steroid production in H295R/CYP21A2-KD cells; type: cell-based, human
Procedure: (§1) For instrumental detection of steroids, culture medium samples were extracted by ethyl acetate/hexane (v/v, 50/50) followed by LC-MS/MS analysis. […] C-d4 was provided by Cambridge (Andover, Mass., USA), other labelled standards were provided by C/D/N Isotope (Pointe-Claire, Quebec, Canada). Test chemicals (e.g. test substances) were obtained from Sigma. […] For all other hormones, chromatography was performed using a nano-pure water and methanol. Sample extract was separated by a 100 mm×2.1 mm Thermo Scientific Betasil C18 column (5 μm pore size) and then analyzed by a triple quadrapole tandem mass spectrometer (Waters, USA). All data were acquired and processed with Analyst Software, Ver. 1.4.1 (ABI-Sciex).
(§2) Cells were exposed to model chemicals in 24-well cell culture plates (COSTAR, Bucks, UK). One ml of cell suspension was added to each well and cells cultured for 24 to 48 h. Cells were exposed to chemicals dissolved in dimethyl sulfoxide (DMSO; Sigma-Aldrich, St. Louis, Mo.). Forskolin (FOR) was obtained from Sigma Chemical Co. (St. Louis, Mo., USA) and Prochloraz (PRO) was purchased from Aldrich (St. Louis, Mo., USA). The culture medium was collected from each well after 48 h and stored at −80° C. until further measurement.

H295R cells [4] = assay: Chemical exposure, steroid production in unaltered H295R cells; type: cell-based, human; settings: 48 h
Procedure: as §1, §2

[5] = system: female rat primary granulosa cells; settings: cited from earlier work

| Compound | Effect type: estradiol (E2) production (H295R cells [1]) | Effect type: testosterone (T) production (H295R cells [1]) | further results |
| --- | --- | --- | --- |
| CCC1(c2ccc(N)cc2)CCC(=O)NC1=O (stereo not drawn) [Aminoglutethimide] | Medium to weak inhibitor of T and E2 | Medium to weak inhibitor of T and E2 |  |
| CCNc1nc(Cl)nc(NC(C)C)n1 [Atrazine] | Weak inducer of E2 production. |  | Effect on aromatase (CYP19) activity in vitro (aromatase (CYP19)): Aromatase inducer in vitro |
| CCCCNC(=O)n1c(NC(=O)OC)nc2ccccc21 [Benomyl] | inducer or negative for E2 production. | Weak inhibitor of T production; Weak | Effect on aromatase activity (aromatase): Has been shown to induce aromatase; Effect on aromatase (CYP19) activity in vitro (aromatase (CYP19)): Aromatase inducer in vitro |
| CC(C)(c1ccc(O)cc1)c1ccc(O)cc1 [Bisphenol A] | inducer | inhibitor | Uterrotrophic assay result [2]: estradiol. Tested positive for ER; Effect on progesterone (synthesis) in vitro [3]: Some evidence that alters; ER binding in vitro (ER): estradiol. Tested positive for ER |
| C#C[C@]1(O)CC[C@H]2[C@@H]3CCC4=Cc5oncc5C[C@]4(C)[C@H]3CC[C@@]21C [Danazol] | medium to strong inhibitor of estradiol. | Negative for effects on testosterone; |  |
| CCCCC(CC)COC(=O)c1ccccc1C(=O)OCC(CC)CCCC (stereo not drawn) [Di (2-ethylhexyl) phthalate (DEHP), Di (2-ethylhexyl) phthalate] | inducer of estradiol in H295R cells. |  |  |
| CNC(=O)CSP(=S)(OC)OC [Dimethoate] | increases testosterone and estradiol | increases testosterone and estradiol | Effect on progesterone (synthesis) in vitro [3]: Has been shown to decrease; Effect on aromatase (CYP19) activity in vitro (aromatase (CYP19)): not affect aromatase activity in vitro; |
| OC(c1ccc(Cl)cc1)(c1cncnc1)c1ccccc1Cl (stereo not drawn) [Fenarimol] | not as unequivocal; weak inhibitor of |  |  |
| CC(C)(C)NC(=O)[C@H]1CC[C@H]2[C@@H]3CC[C@H]4NC(=O)C=C[C@]4(C)[C@H]3CC[C@]12C [Finasteride] | negative for effects on estradiol. | Weak inhibitor of testosterone; |  |
| O=c1c(-c2ccc(O)cc2)coc2cc(O)cc(O)c12 [Genistein] | Medium inducer of E2 and weak | inhibitor of T production. Weak | Estrogen receptor agonism (estrogen receptor): estrogen receptor agonist |
| CC(=O)N1CCN(c2ccc(OCC3COC(Cn4ccnc4)(c4ccc(Cl)cc4Cl)O3)cc2)CC1 (stereo not drawn) [Ketoconazole] | Medium to weak inhibitor of E2 | Strong inhibitor of T production; | Effect type: progesterone production (H295R cells [1]): production; Induces progesterone |
| N#Cc1ccc(C(c2ccc(C#N)cc2)n2cncn2)cc1 [Letrozole] | Strong inhibitor of E2 production. | Weak inhibitor of T production. |  |
| CCSC(=O)N1CCCCCC1 [Molinate] |  | negative/weak inhibitor of T | Inhibition of esterase activity (esterase): vitro, molinate is a poor |
| CCCCOC(=O)c1ccc(O)cc1 [Paraben (Butyl paraben), Butyl paraben] | Weak inducer of E2, and weak | inhibitor of T production. |  |
| CCCN(CCOc1c(Cl)cc(Cl)cc1Cl)C(=O)n1ccnc1 [Prochloraz] | Strong inhibitor of T and E2 | Strong inhibitor of T and E2 | Effect on progesterone production (H295R/CYP21A2-KD cells): increased; Effect on production of E1 (H295R/CYP21A2-KD cells; H295R/CYP21A2-KD, 48 h): inhibited; Effect on production of E2 (H295R/CYP21A2-KD cells; H295R/CYP21A2-KD, 48 h): inhibited; Effect on production of T (H295R/CYP21A2-KD cells; H295R/CYP21A2-KD, 48 h): inhibited; Effect on production of E1 (H295R cells [4]): inhibited; Effect on production of E2 (H295R cells [4]): inhibited; Effect on production of T (H295R cells [4]): inhibited; Effect on progesterone production (H295R cells [4]; 0.1 μM to 10 μM, dose-dependent): increased |
| COc1nc(NC(C)C)nc(NC(C)C)n1 [Prometon] | Weak inducer of E2 production; | Negative for T. |  |
| CC#C[C@]1(O)CC[C@H]2[C@@H]3CCC4=CC(=O)CCC4=C3[C@@H](c3ccc(N(C)C)cc3)C[C@@]21C [RU-486/mifepristone, mifepristone] | medium to strong inducer of estradiol. | Negative for effects on testosterone; | ER result (mode of action) (estrogen receptor): Negative for ER very |
| C[C@]12CC[C@H]3[C@@H](CC[C@@]45O[C@@H]4C(O)=C(C#N)C[C@]35C)[C@@H]1CC[C@@H]2O [Trilostane] | Strong inducer of T and E2 | Strong inducer of T and E2 |  |
| C=CC1(C)OC(=O)N(c2cc(Cl)cc(Cl)c2)C1=O (stereo not drawn) [Vinclozolin] | Weak inducer of and moderate | inhibitor of T production. |  |
| CCCCC(CC)COC(=O)c1ccccc1C(=O)O (stereo not drawn) [monoethylhexyl phthalate (MEHP), monoethylhexyl phthalate] |  |  | Effect on estradiol production [5]: (MEHP) has been shown to suppress |
| Nonoxynol-9 | Negative for effects on testosterone | Negative for effects on testosterone |  |
